The values below come from patent US12662476B2, “Herbicidal thiazole compounds” (SYNGENTA CROP PROTECTION AG, priority 2019, dated 2026).

Common to all, as to type: in vivo
Experiment [1] relates to Amaranthus retoflexus (AMARE). Briefly: Post-emergence herbicidal glasshouse test. To be noted: sprayed after 8 days cultivation, 250 g/ha, evaluated after 13 days, five-point scale. The method, then:
(§1) Seeds of a variety of test species are sown in standard soil in pots Amaranthus retoflexus (AMARE), Echinochloa crus-galli (ECHCG), Setaria faberi (SETFA)). After cultivation for one day (pre-emergence) or after 8 days cultivation (post-emergence) under controlled conditions in a glasshouse (at 24/16° C., day/night; 14 hours light; 65% humidity), the plants are sprayed with an aqueous spray solution derived from the formulation of the technical active ingredient in acetone/water (50:50) solution containing 0.5% Tween™ 20 (polyoxyethylene sorbitan monolaurate, CAS RN 9005-64-5). Compounds are applied at 250 g/ha unless otherwise stated. The test plants are then grown in a glasshouse under controlled conditions in a glasshouse (at 24/16° C., day/night; 14 hours light; 65% humidity) and watered twice daily. After 13 days for pre- and post-emergence, the test is evaluated for the percentage damage caused to the plant. The biological activities are shown in the following table on a five-point scale (5=81-100%; 4=61-80%; 3=41-60%; 2=21-40%; 1=0-20%).

Experiment [2] has as its system Echinochloa crus-galli (ECHCG). The experiment in a line: Post-emergence herbicidal glasshouse test. As to conditions: sprayed after 8 days cultivation, 250 g/ha, evaluated after 13 days, five-point scale. The method, then:
as §1

Experiment [3] relates to Setaria faberi (SETFA). Briefly: Post-emergence herbicidal glasshouse test. As to conditions: sprayed after 8 days cultivation, 250 g/ha, evaluated after 13 days, five-point scale. As for the experimental part:
as §1

For experiment [4], the system named is Amaranthus retoflexus (AMARE). Briefly: Pre-emergence herbicidal glasshouse test. To be noted: sprayed after one day cultivation, 250 g/ha, evaluated after 13 days, five-point scale. As for the experimental part:
as §1

In experiment [5] the test system is Echinochloa crus-galli (ECHCG). The experiment in a line: Pre-emergence herbicidal glasshouse test. As to conditions: sprayed after one day cultivation, 250 g/ha, evaluated after 13 days, five-point scale. As for the experimental part:
as §1

The test system of experiment [6] is Setaria faberi (SETFA). Briefly: Pre-emergence herbicidal glasshouse test. As to conditions: sprayed after one day cultivation, 250 g/ha, evaluated after 13 days, five-point scale. As for the experimental part: as §1

Take `FC(F)c1cc(-c2c(Br)cccc2Oc2ncc(C(F)F)s2)on1` [Compound 1.020]: the results for the “percentage damage caused to the plant, AMARE” value in experiment [1] and in experiment [4] were 4 (4=61-80%) and 1 (1=0-20%), respectively. Further, the “percentage damage caused to the plant, ECHCG” value in experiment [2] is reported as 4 (4=61-80%); in experiment [5], 5 (5=81-100%). The “percentage damage caused to the plant, SETFA” value in experiment [3] and in experiment [6] was 5 (5=81-100%) in each case.

As for `Fc1cccc(Oc2nc(Cl)c(Cl)s2)c1-c1cc(C(F)F)no1` [Compound 1.029], the “percentage damage caused to the plant, AMARE” value in experiment [1] and in experiment [4] was 5 (5=81-100%) in each case. The “percentage damage caused to the plant, ECHCG” value in experiment [2] and in experiment [5] was 1 (1=0-20%) throughout. The “percentage damage caused to the plant, SETFA” value in experiment [3] and in experiment [6] was 2 (2=21-40%) throughout.

On to `FC(F)c1cc(-c2c(Cl)cccc2Oc2ncc(C(F)F)s2)on1` [Compound 1.019], for which the figures for the “percentage damage caused to the plant, AMARE” value in experiment [1] and in experiment [4] were 4 (4=61-80%) and 2 (2=21-40%), respectively. Besides, the “percentage damage caused to the plant, ECHCG” value in experiment [2] is 4 (4=61-80%); in experiment [5] it was 5 (5=81-100%). Also, the “percentage damage caused to the plant, SETFA” value in experiment [3] and in experiment [6] was 5 (5=81-100%) throughout.

In the case of `Fc1cccc(Oc2nccs2)c1-c1cc(C(F)F)no1` [Compound 1.003], the “percentage damage caused to the plant, AMARE” value in experiment [1] was 2 (2=21-40%); in experiment [4], 5 (5=81-100%). Further, the “percentage damage caused to the plant, ECHCG” value in experiment [2] is 1 (1=0-20%); in experiment [5], 2 (2=21-40%). For the same molecule, the “percentage damage caused to the plant, SETFA” value in experiment [3] and in experiment [6] was 2 (2=21-40%) each time.

As to `FC(F)c1cc(-c2c(Br)cccc2Oc2nc(Cl)c(Cl)s2)on1` [Compound 1.028], the “percentage damage caused to the plant, AMARE” value in experiment [1] was 4 (4=61-80%); in experiment [4], 2 (2=21-40%). Further, the “percentage damage caused to the plant, ECHCG” value in experiment [2] and in experiment [5] was 4 (4=61-80%) in each case. The “percentage damage caused to the plant, SETFA” value in experiment [3] and in experiment [6] was 4 (4=61-80%) throughout.

In the case of `FC(F)c1cc(-c2c(Br)cccc2Oc2ncc(Cl)s2)on1` [Compound 1.023], the “percentage damage caused to the plant, AMARE” value in experiment [1] and in experiment [4] was 5 (5=81-100%) in each case. The “percentage damage caused to the plant, ECHCG” value in experiment [2] and in experiment [5] was 5 (5=81-100%) each time. Further, the “percentage damage caused to the plant, SETFA” value in experiment [3] and in experiment [6] was 5 (5=81-100%) in each case.

As for `Fc1cccc(Oc2nc(C(F)F)c(Cl)s2)c1-c1cc(C(F)F)no1` [Compound 1.035], the “percentage damage caused to the plant, AMARE” value in experiment [1] is 2 (2=21-40%); in experiment [4], 1 (1=0-20%). For the same molecule, the “percentage damage caused to the plant, ECHCG” value in experiment [2] and in experiment [5] was 1 (1=0-20%) each time. The “percentage damage caused to the plant, SETFA” value in experiment [3] and in experiment [6] was 1 (1=0-20%) in each case.

As to `Fc1cccc(Oc2ncc(Cl)s2)c1-c1cc(C(F)F)no1` [Compound 1.006], the “percentage damage caused to the plant, AMARE” value in experiment [1] and in experiment [4] was 5 (5=81-100%) each time. Further, the “percentage damage caused to the plant, ECHCG” value in experiment [2] is listed as 4 (4=61-80%); in experiment [5] it was 5 (5=81-100%). Moreover, the “percentage damage caused to the plant, SETFA” value in experiment [3] and in experiment [6] was 5 (5=81-100%) each time.

For `N#Cc1cccc(Oc2ncc(Cl)s2)c1-c1cc(C(F)F)no1` [Compound 1.012], the “percentage damage caused to the plant, AMARE” value is listed as 5 (5=81-100%) in experiment [1] and 2 (2=21-40%) in experiment [4]. In addition, the “percentage damage caused to the plant, ECHCG” value is 3 (3=41-60%) in experiment [2] and 4 (4=61-80%) in experiment [5]. Moreover, the figures for the “percentage damage caused to the plant, SETFA” value in experiment [3] and in experiment [6] were 4 (4=61-80%) and 5 (5=81-100%), respectively.

For `N#Cc1cccc(Oc2ncc(Br)s2)c1-c1cc(C(F)F)no1` [Compound 1.013], the “percentage damage caused to the plant, AMARE” value is 5 (5=81-100%) in experiment [1] and 2 (2=21-40%) in experiment [4]. In addition, the “percentage damage caused to the plant, ECHCG” value was 2 (2=21-40%) in experiment [2] and 4 (4=61-80%) in experiment [5]. In addition, the figures for the “percentage damage caused to the plant, SETFA” value in experiment [3] and in experiment [6] were 3 (3=41-60%) and 4 (4=61-80%), respectively.

In the case of `Fc1cccc(-c2cc(C(F)F)no2)c1Oc1ncc(Cl)s1` [Compound 1.010], the results for the “percentage damage caused to the plant, AMARE” value in experiment [1] and in experiment [4] were 4 (4=61-80%) and 5 (5=81-100%), respectively. Further, the “percentage damage caused to the plant, ECHCG” value is reported as 3 (3=41-60%) in experiment [2] and 4 (4=61-80%) in experiment [5]. Also, the “percentage damage caused to the plant, SETFA” value in experiment [3] and in experiment [6] was 4 (4=61-80%) in each case.

Regarding `N#Cc1cccc(Oc2ncc(C(F)F)s2)c1-c1cc(C(F)F)no1` [Compound 1.014], the “percentage damage caused to the plant, AMARE” value in experiment [1] and in experiment [4] was 3 (3=41-60%) in each case. Also, the “percentage damage caused to the plant, ECHCG” value is 3 (3=41-60%) in experiment [2] and 5 (5=81-100%) in experiment [5]. Also, the “percentage damage caused to the plant, SETFA” value in experiment [3] is reported as 4 (4=61-80%); in experiment [6], 5 (5=81-100%).
